In experiment [1] the test system is Radical scavenging activity. The experiment is described as follows: Antioxidant activity assessed as DPPH free radical scavenging activity at 20 ug/ml after 30 min by spectrophotometric analysis. It is filed as functional. A general note: Loss of DPPH colour is used to gauge radical scavenging.
The target of experiment [2] is Lysosomal alpha-glucosidase (Rattus norvegicus) (UniProt Q6P7A9). The experiment is described as follows: Inhibition of rat intestinal alpha-glucosidase using para-nitrophenyl-alpha-D-glucopyranoside as substrate at 25 ug/ml incubated for 5 min prior to substrate addition measured after 5 min by spectrophotometric analysis.
Lysosomal alpha-glucosidase (Rattus norvegicus), sequence (Q6P7A9 whole entry): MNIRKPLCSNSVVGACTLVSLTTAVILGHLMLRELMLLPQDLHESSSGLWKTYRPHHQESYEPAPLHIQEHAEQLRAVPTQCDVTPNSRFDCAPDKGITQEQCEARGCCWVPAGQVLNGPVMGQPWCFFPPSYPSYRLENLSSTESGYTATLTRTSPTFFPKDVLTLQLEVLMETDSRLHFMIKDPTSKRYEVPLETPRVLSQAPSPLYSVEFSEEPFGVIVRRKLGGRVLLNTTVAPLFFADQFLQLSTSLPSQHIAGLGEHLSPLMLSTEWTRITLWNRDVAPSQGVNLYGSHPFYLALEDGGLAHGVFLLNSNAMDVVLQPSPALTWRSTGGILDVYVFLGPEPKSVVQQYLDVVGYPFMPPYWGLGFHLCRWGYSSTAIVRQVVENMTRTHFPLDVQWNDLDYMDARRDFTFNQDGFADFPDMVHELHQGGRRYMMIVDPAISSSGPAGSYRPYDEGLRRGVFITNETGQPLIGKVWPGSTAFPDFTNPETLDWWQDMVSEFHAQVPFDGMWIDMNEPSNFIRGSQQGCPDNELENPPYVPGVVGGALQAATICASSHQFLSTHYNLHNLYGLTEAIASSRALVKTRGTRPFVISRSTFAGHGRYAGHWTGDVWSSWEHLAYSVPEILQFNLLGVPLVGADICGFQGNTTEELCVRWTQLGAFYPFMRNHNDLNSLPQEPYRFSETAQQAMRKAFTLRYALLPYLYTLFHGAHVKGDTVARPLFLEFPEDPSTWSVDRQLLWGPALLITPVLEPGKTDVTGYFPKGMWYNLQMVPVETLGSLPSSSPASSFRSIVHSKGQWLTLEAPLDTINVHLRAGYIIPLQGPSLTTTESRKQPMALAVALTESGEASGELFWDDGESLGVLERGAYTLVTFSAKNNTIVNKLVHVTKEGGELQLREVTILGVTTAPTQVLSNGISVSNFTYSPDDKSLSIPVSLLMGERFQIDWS
Experiment [3] concerns Radical scavenging activity. The experiment is described as follows: Antioxidant activity assessed as concentration required for 50% DPPH free radical scavenging activity after 30 min by spectrophotometric analysis. Type of experiment: functional.
The subject of experiment [4] is Rattus norvegicus. The experiment is described as follows: Antihyperglycemic activity in starch-induced post-parandial hyperglycemic Rattus norvegicus Wistar (rat) model assessed as decrease in plasma glucose level at 10 mg/kg, po administered via gastric intubation by glucose-oxidase test. Type of experiment: functional, organism-based. Also on record: dose 10 mg/kg. The conditions noted are these: TDE = time-dependent effect.

The subject of experiment [5] is Rattus norvegicus. The experiment is described as follows: Antihyperglycemic activity in starch-induced post-parandial hyperglycemic Rattus norvegicus Wistar (rat) model assessed as decrease in plasma AUC at 10 mg/kg, po administered via gastric intubation administered 15 min followed by starch challenge measured after 30 to 120 min by glucose-oxidase test. It is filed as functional, organism-based. Also on record: dose 10 mg/kg.

The test system of experiment [6] is Rattus norvegicus. The experiment is described as follows: Antihyperglycemic activity in starch-induced post-parandial hyperglycemic Rattus norvegicus Wistar (rat) model assessed as decrease in plasma AUC at 50 mg/kg, po administered via gastric intubation administered 15 min followed by starch challenge measured after 30 to 120 min by glucose-oxidase test. Type of experiment: functional, organism-based. Also on record: dose 50 mg/kg.

In experiment [7] the test system is Rattus norvegicus. The experiment is described as follows: Antihyperglycemic activity in starch-induced post-parandial hyperglycemic Rattus norvegicus Wistar (rat) model assessed as decrease in plasma glucose level at 50 mg/kg, po administered via gastric intubation by glucose-oxidase test. Also on record: dose 50 mg/kg. The conditions noted are these: TDE = time-dependent effect. Type of experiment: functional, organism-based.

Each structure is given as a SMILES string. The source made the active and inactive calls. No cut-off for these calls is given here.

As for `COc1cc(OC)c(OC)cc1/C=C/C(=O)c1cc2ccoc2cc1O`, the Activity in experiment [1] came to 17.1%. Besides, the inhibition in experiment [2] is 68%.
In the case of `COc1cc(/C=C/C(=O)c2cc3ccoc3cc2O)ccc1O`, in experiment [1], the Activity worked out at 42.1%. This compound yielded an inhibition in experiment [2] of 52.8%.
Regarding `O=C(/C=C/c1ccc(O)c(O)c1)c1cc2ccoc2cc1O`, the Activity in experiment [1] was 69.8%; in experiment [3], 26.2 µM. The inhibition in experiment [2] stood at 62.7%.
Regarding `O=C(/C=C/c1ccccc1)c1cc2ccoc2cc1O`, the Activity in experiment [1] came out at 9.91%. This compound gave an inhibition in experiment [2] of 67.6%.
For the compound `COc1ccc(/C=C/C(=O)c2cc3ccoc3cc2O)cc1`, the inhibition in experiment [2] worked out at 48.9%.
With `O=C(/C=C/c1ccccc1)c1ccc2occc2c1O`, the Activity in experiment [1] amounted to 7.57%. The compound also gave an inhibition in experiment [2] of 20.8%.
Take `O=C(/C=C/c1ccc(O)cc1)c1cc2ccoc2cc1O`: the values for the Activity in experiment [1] and in experiment [3] were 73.2% and 12 µM, respectively. In experiment [2], this compound had an inhibition of 8.77%.
The compound `COc1ccc(/C=C/C(=O)c2ccc3occc3c2O)cc1` registered an inhibition in experiment [2] of 94.8%.
In the case of `Cc1c(C)c2c(c(C)c1O)CCC(C)(C(=O)O)O2` (stereo not given), the figures for the Activity in experiment [1] and in experiment [3] were 99.5% and 4.8 µM, respectively.
`O=C(/C=C/c1ccc(O)cc1)c1ccc2occc2c1O`: the Activity in experiment [1] was 75.8%; in experiment [3], 17.8 µM. In addition, the inhibition in experiment [2] is 65.7%.
On to `C[C@H]1O[C@H](O[C@H]2[C@H](O)[C@@H](O)[C@@H](O[C@H]3[C@H](O)[C@@H](O)C(O)O[C@@H]3CO)O[C@@H]2CO)[C@H](O)[C@@H](O)[C@@H]1N[C@H]1C=C(CO)[C@@H](O)[C@H](O)[C@H]1O` (stereo not given in full), for which the Activity result in experiment [4] is “tde”. In experiment [5], the result was Active.
On to `COc1ccc(/C=C/C(=O)c2cc3ccoc3cc2O)cc1OC`, for which, in experiment [1], the Activity was determined as 8.78%. Moreover, the inhibition in experiment [2] amounted to 89.3%.
For the compound `O=C(/C=C/c1ccc(O)c(O)c1)c1ccc2occc2c1O`, the Activity came out at 67.9% in experiment [1] and 29.7 µM in experiment [3]. In experiment [2], the inhibition turned out to be 61.5%.
Take `COc1cc(/C=C/C(=O)c2ccc3occc3c2O)ccc1O`: the Activity in experiment [1] turned out to be 54.2%. Besides, in experiment [2], the inhibition was determined as 45%.
Take `COc1ccc(/C=C/C(=O)c2ccc3occc3c2O)c(OC)c1OC`: the Activity in experiment [1] came out at 7.3%. For the same compound, in experiment [2], the inhibition was determined as 67.3%.
For the compound `COc1ccc(/C=C/C(=O)c2ccc3occc3c2O)cc1OC`, the result in experiment [6] was Active. Besides, the Activity result in experiment [7] was “tde”. The same compound returned an inhibition in experiment [2] of 89.5%.

A word on the inhibition: it is the relative decrease from the control value, in per cent. A high value points to strong suppression.

Source of the values: ChEMBL document CHEMBL3046873, “Synthesis of antihyperglycemic, -glucosidase inhibitory, and DPPH free radical scavenging furanochalcones” (Med Chem Res, 2012).
